Assay results reported in publication PMC9731865, “Gambogic acid and juglone inhibit RNase P through distinct mechanisms” (The Journal of Biological Chemistry, 2022).

How the values were obtained:
A. thaliana PRORP1 = molecular target: T1, A. thaliana PRORP1 (Arabidopsis thaliana, UniProt Q66GI4); test: FP cleavage assay, PRORP1 dose response; type: biochemical; details: for activity at 6.25 µM: 6.25 μM of inhibitor, FP cleavage assay, read-out: PRORP1 Activity (%); for IC50: 30 min preincubation, 0.3 nM PRORP1, 800 nM pre-tRNA, 25 °C, apparent IC50 for juglone
T1 construct: made in house
T1 sequence (Q66GI4 77-572): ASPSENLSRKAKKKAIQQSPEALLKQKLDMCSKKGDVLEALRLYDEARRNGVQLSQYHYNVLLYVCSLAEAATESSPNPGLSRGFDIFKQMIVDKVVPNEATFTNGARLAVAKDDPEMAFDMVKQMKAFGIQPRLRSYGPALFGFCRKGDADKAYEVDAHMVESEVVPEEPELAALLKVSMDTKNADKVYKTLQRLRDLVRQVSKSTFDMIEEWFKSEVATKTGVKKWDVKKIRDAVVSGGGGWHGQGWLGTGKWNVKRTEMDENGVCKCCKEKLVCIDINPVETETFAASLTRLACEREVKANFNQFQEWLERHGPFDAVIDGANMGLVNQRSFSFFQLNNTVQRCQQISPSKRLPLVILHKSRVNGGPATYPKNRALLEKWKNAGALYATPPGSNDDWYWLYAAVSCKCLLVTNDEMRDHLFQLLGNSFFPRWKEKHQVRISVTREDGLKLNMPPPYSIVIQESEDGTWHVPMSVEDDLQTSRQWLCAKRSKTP
Method: (§1) Compounds gambogic acid (A) and juglone (B) were incubated with enzyme at double the reaction concentration for 30 min prior to the addition of an equal volume of substrate to initiate the reaction. PRORP1 reactions (shown in green) were performed with 0.3 nM PRORP1 and 800 nM pre-tRNA containing 40 nM Fl-pre-tRNA at 25 °C in 30 mM MOPS pH 7.8, 5 mM MgCl2, 100 mM NaCl, 1 mM TCEP, 500 nM (12 μg/ml) yeast tRNA, 5 mM spermidine, 6.65 μg/ml BSA, and 0.01% NP-40. MRPP1/2/3 reactions (shown in red) were performed using 50 nM MRPP3, 500 nM MRPP1/2, 500 nM pre-tRNA containing 40 nM Fl-pre-tRNA at 37 °C in 50 mM MOPS (pH 7.8), 1 mM TCEP, 4.5 mM MgCl2, and 100 mM NaCl. B. subtilis RNase P reactions (shown in blue) were performed using 20 nM RNase P and 500 nM pre-tRNA containing 40 nM Fl-pre-tRNA at 37 °C in 50 mM Tris, pH 7.2, 5 mM MgCl2, 100 mM KCl, 500 nM (12 μg/ml) yeast tRNA, 20 mM dithiothreitol (DTT), 10 mM spermidine, and 0.01% NP-40. Equation 1 was fit to each dataset.
The activity of PRORP1 catalyzed pre-tRNA cleavage was measured by monitoring the fluorescence anisotropy (FA) signal (λex = 485 nm and λem = 535 nm) over time at 25 °C in buffer conditions optimized for a high-throughput format, 30 mM MOPS pH 7.8, 5 mM MgCl2, 100 mM NaCl, 1 mM TCEP, 500 nM (12 μg/ml) yeast tRNA, 5 mM spermidine, 6.65 μg/ml BSA, and 0.01% NP-40. Yeast tRNA^mix (Roche) was used to reduce the number of compounds that inhibit PRORP1 activity by targeting tRNA. Prior to each reaction, pre-tRNA was heated for 3 min at 95 °C to unfold the RNA and refolded in the reaction buffer at room temperature (25 °C) for 30 min. Reactions were performed in black, 96-well plates (Corning Incorporation, #3686) using a TECAN plate-reader (Infinite F500, G-factor = 1.05) at 25 °C, and the FA values recorded. Reactions were initiated with the addition of substrate to enzyme. Experiments were done in the presence of excess substrate. The concentration of enzyme was 0.3 to 5 nM, the concentration of labeled substrate (Fl-pre-tRNA) was 40 nM, and the concentration of pre-tRNA was 120 to 4000 nM. The concentration of Fl-pre-tRNA was held constant in all reactions.
The dose response was measured using the FP assay as described above with varying concentrations of compound. Compounds were incubated with PRORP1 at twice the reaction concentration for 30 min prior to the addition of equal volumes of substrate to initiate the reaction. Experiments were done under multiple turnover conditions (same buffer conditions as the FP assay). […] PRORP1 activity was determined as a function of inhibitor concentration, and Equation 1 was fit to the data to determine the IC50 value. The standard error of the mean (SEM) is reported from the fit.(1) Activity(%)=100/1+([I]/IC50)^n

B. subtilis RNase P = molecular target: T2, B. subtilis RNase P (Bacillus subtilis, UniProt P25814); test: B. subtilis RNase P activity assay (FP, real-time); type: biochemical
T2 construct: made in house
Method: as §1, with “Figure 4 Gambogic acid and juglone inhibit A. thaliana PRORP1 (green), human MRPP1/2/3 (red), and B. subtilis RNase P (blue). Compounds” for “Compounds”
The inhibition of B. subtilis RNase P activity by gambogic acid and juglone was measured using a previously developed FP assay in real-time.^25 Reactions were performed under multiple turnover conditions using 20 nM RNase P and 500 nM Fl-pre-tRNA^Asp in 50 mM Tris (pH 7.2), 5 mM MgCl2, 100 mM KCl, 500 nM (12 μg/ml) yeast tRNA^mix, 20 mM dithiothreitol, 10 mM spermidine, and 0.01% NP-40 at 37 °C.

T2 sequence (P25814 whole entry): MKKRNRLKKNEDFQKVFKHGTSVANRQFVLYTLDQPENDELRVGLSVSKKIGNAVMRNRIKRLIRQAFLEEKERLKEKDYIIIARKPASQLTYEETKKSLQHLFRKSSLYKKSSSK

Row | Compound | activity at 6.25 µM (A. thaliana PRORP1) | IC50 (A. thaliana PRORP1) | IC50 (B. subtilis RNase P)
1 | O=C1C=CC(=O)c2c(O)cccc21 [juglone, 5-hydroxy-1,4-naphthalenedione] | 20.2% | 2100 ± 40 nM | > 500000 nM
2 | CC(C)=CCC[C@]1(C)C=Cc2c(O)c3c(c(CC=C(C)C)c2O1)O[C@]12C(=C[C@@H]4C[C@H]1C(C)(C)O[C@@]2(C/C=C(/C)C(=O)O)C4=O)C3=O [gambogic acid] | 29.1% | 1010 ± 40 nM | 50000 ± 2000 nM
